Results reported in patent US9169209B2, “Compounds and compositions for the inhibition of NAMPT” (FORMA TM, LLC, priority 2011, dated 2015).
Where two headings read alike, the source gives them in different places.

Key:
NAMPT = NAMPT (Homo sapiens (Human), UniProt P43490); experiment: Biochemical Inhibition Assay (NAMPT enzymatic reaction, NMN quantified by mass spectrometry); settings: recombinant His-tagged NAMPT, 33 nM; 1 μM NAM; read-out: Biochem IC50
Experimental: Recombinant His-tagged NAMPT was produced in E. coli cells, purified over a Ni column, and further purified over a size-exclusion column by XTAL Biostructures.
The NAMPT enzymatic reactions were carried out in Buffer A (50 mM Hepes pH 7.5, 50 mM NaCl, 5 mM MgCl2, and 1 mM THP) in 96-well V-bottom plates. The compound titrations were performed in a separate dilution plate by serially diluting the compounds in DMSO to make a 100× stock. […] The compound and enzyme mix was incubated for 15 minutes at room temperature, then 10 μL of 10× substrate and co-factors in Buffer A were added to the test well to make a final concentration of 1 μM NAM, 100 μM 5-Phospho-D-ribose 1-diphosphate (PRPP), and 2.5 mM Adenosine 5′-triphosphate (ATP). The reaction was allowed to proceed for 30 minutes at room temperature, then was quenched with the addition of 11 μL of a solution of formic acid and L-Cystathionine to make a final concentration of 1% formic acid and 10 μM L-Cystathionine. Background and signal strength was determined by addition (or non-addition) of a serial dilution of NMN to a pre-quenched enzyme and cofactor mix.
A mass spectrometry-based assay was used to measure the NAMPT reaction product (NMN) and the internal control (L-Cystathionine). NMN and L-Cystathionine were detected using the services of Biocius Lifesciences with the RapidFire system. In short, the NMN and L-Cystathionine are bound to a graphitic carbon cartridge in 0.1% formic acid, eluted in 30% acetonitrile buffer, and injected into a Sciex 4000 mass spectrometer. The components of the sample were ionized with electrospray ionization and the positive ions were detected. […] The fragments are quantified and the analyzed by the following method.
First the NMN signal is normalized to the L-Cystathionine signal by dividing the NMN signal by the L-Cystathionine signal for each well. The signal from the background wells are averaged and subtracted from the test plates.
Wherein x denotes the average signal of the compound treated wells and y denotes the average signal of the DMSO treated wells.
IC50s are Determined Using Excel and this Formula.
Wherein X denotes the compound concentration 1, Y denotes the compound concentration 2, XX denotes the % inhibition at compound concentration 1 (X), and YY denotes the % inhibition at compound concentration 2 (Y).

A2780 cells = experiment: In-Vitro Cell Proliferation Assay (SRB, 72 hours); format: cell-based; settings: read-out: A2780 IC50
Experimental: After overnight incubation at 37° C. and 5% CO2, the compound titrations were performed in a separate dilution plate by serially diluting the compounds in DMSO to make a 1000× stock. The compounds were then further diluted to 10× final concentration in culture media, whereupon 20 μL of each dilution was added to the plated cells with controls (e.g. DMSO and blank) to make a final volume of 200 μL. The final DMSO concentration in each well was 0.1%. The plates were then incubated for 72 hours at 37° C. in a 5% CO2 incubator. The number of viable cells was then assessed using sulforhodamine B (SRB) assay. Cells were fixed at 4° C. for 1 hour with the addition of 50 μL 30% trichloroacetic acid (TCA) to make a final concentration of 6% TCA. The plates were washed four times with H2O and allowed to dry for at least 1 hour, whereupon 100 μL of a 4% SRB in 1% acetic acid solution was added to each well and incubated at room temperature for at least 30 minutes. The plates were then washed three times with 1% acetic acid, dried, and treated with 100 μL of 10 mM Tris-Base solution. The plates were then read in a microplate reader at an absorbance of 570 nm. Background was generated on a separate plate with media only.
First, the signals from the background plate are averaged and then the background was subtracted from the test plates.
wherein x denotes the average signal of the compound-treated cells and y denotes the average signal of the DMSO-treated cells.
wherein X denotes the compound concentration 1, Y denotes the compound concentration 2, XX denotes the % inhibition at compound concentration 1 (X), and YY denotes the % inhibition at compound concentration 2 (Y).

[1] = Homo sapiens, A2780, 72 h, A2780 cells, 72 hours, sulforhodamine B

Chain of NAMPT (P43490 whole entry): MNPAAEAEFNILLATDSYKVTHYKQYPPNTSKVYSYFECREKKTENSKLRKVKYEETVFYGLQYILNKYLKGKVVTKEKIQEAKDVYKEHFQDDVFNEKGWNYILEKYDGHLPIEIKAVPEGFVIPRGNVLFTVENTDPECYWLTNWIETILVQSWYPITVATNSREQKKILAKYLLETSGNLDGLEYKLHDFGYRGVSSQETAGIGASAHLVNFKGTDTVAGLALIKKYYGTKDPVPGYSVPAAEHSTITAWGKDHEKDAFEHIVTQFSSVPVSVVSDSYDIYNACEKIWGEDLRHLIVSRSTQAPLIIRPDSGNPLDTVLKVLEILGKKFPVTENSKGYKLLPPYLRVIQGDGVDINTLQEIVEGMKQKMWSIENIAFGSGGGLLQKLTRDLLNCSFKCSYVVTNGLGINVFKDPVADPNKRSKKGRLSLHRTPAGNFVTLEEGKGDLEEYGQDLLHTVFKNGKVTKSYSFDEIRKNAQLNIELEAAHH

`O=C(/C=C/c1cccnc1)Nc1ccc(S(=O)(=O)c2cccc3ccccc23)cc1` [(2E)-N-[4-(naphthalene-1-sulfonyl)phenyl]-3-(pyridin-3-yl)prop-2-enamide] showed an IC50 (NAMPT) of 4.2 nM and an IC50 (A2780 cells; [1]) of 18.1 nM.
`O=C(/C=C/c1cccnc1)Nc1ccc(S(=O)(=O)c2cccc3c2Oc2ccccc2S3)cc1` [(2E)-N-[4-(phenoxathiine-4-sulfonyl)phenyl]-3-(pyridin-3-yl)prop-2-enamide] gave an IC50 (NAMPT) of 7.2 nM and an IC50 (A2780 cells; [1]) of 50.1 nM.
`O=C(/C=C/c1cccnc1)NCc1ccc(S(=O)(=O)N2CC3CCC(C2)O3)cc1` [(2E)-N-[(4-{8-oxa-3-azabicyclo[3.2.1]octane-3-sulfonyl}phenyl)methyl]-3-(pyridin-3-yl)prop-2-enamide] gave an IC50 (NAMPT) of 3 nM and an IC50 (A2780 cells; [1]) of 386 nM.
`CN(C)c1ncc(S(=O)(=O)c2ccc(NC(=O)/C=C/c3cccnc3)cc2)cn1` [(2E)-N-{4-[2-(dimethylamino)pyrimidine-5-sulfonyl]phenyl}-3-(pyridin-3-yl)prop-2-enamide] was tested, and the IC50 (NAMPT) was 7.9 nM and the IC50 (A2780 cells; [1]) was 73.1 nM.
With `O=C(/C=C/c1cccnc1)Nc1ccc(S(=O)(=O)N2CCC(N3CCOCC3)CC2)cc1` [(2E)-N-{4-[4-(morpholin-4-yl)piperidine-1-sulfonyl]phenyl}-3-(pyridin-3-yl)prop-2-enamide] the IC50 (NAMPT) was 10 nM and the IC50 (A2780 cells; [1]) was 210 nM.
`CN(C)c1ccc(S(=O)(=O)c2ccc(NC(=O)/C=C/c3cccnc3)cc2)cn1` [(2E)-N-{4-[6-(dimethylamino)pyridine-3-sulfonyl]phenyl}-3-(pyridin-3-yl)prop-2-enamide] gave an IC50 (NAMPT) of 5.1 nM and an IC50 (A2780 cells; [1]) of 78.1 nM.
`O=C(/C=C/c1cccnc1)Nc1ccc(S(=O)(=O)c2cc(Cl)ccc2Cl)cc1` [(2E)-N-{4-[(2,5-dichlorobenzene)sulfonyl]phenyl}-3-(pyridin-3-yl)prop-2-enamide] gave an IC50 (NAMPT) of 22.4 nM and an IC50 (A2780 cells; [1]) of 100 to 1000 nM.
With `COc1ccc(C)cc1S(=O)(=O)c1ccc(NC(=O)/C=C/c2cccnc2)cc1` [(2E)-N-{4-[(2-methoxy-5-methylbenzene)sulfonyl]phenyl}-3-(pyridin-3-yl)prop-2-enamide] the IC50 (NAMPT) was 1.8 nM and the IC50 (A2780 cells; [1]) was 7.3 nM.
In the case of `COc1ccccc1S(=O)(=O)c1ccc(NC(=O)/C=C/c2cccnc2)cc1` [(2E)-N-{4-[(2-methoxybenzene)sulfonyl]phenyl}-3-(pyridin-3-yl)prop-2-enamide], the IC50 (NAMPT) is reported as 7.7 nM and the IC50 (A2780 cells; [1]) is reported as 24.1 nM.
`Cc1ccccc1S(=O)(=O)c1ccc(NC(=O)/C=C/c2cccnc2)cc1` [(2E)-N-{4-[(2-methylbenzene)sulfonyl]phenyl}-3-(pyridin-3-yl)prop-2-enamide] gave an IC50 (NAMPT) of 33.3 nM and an IC50 (A2780 cells; [1]) of 100 to 1000 nM.
In the case of `O=C(/C=C/c1cccnc1)Nc1ccc(S(=O)(=O)c2ccc(Cl)c(Cl)c2)cc1` [(2E)-N-{4-[(3,4-dichlorobenzene)sulfonyl]phenyl}-3-(pyridin-3-yl)prop-2-enamide], the IC50 (NAMPT) is reported as 72.9 nM and the IC50 (A2780 cells; [1]) is reported as 100 to 1000 nM.
`COc1ccc(S(=O)(=O)c2ccc(NC(=O)/C=C/c3cccnc3)cc2)cc1OC` [(2E)-N-{4-[(3,4-dimethoxybenzene)sulfonyl]phenyl}-3-(pyridin-3-yl)prop-2-enamide] was tested, and the IC50 (NAMPT) was 2.5 nM and the IC50 (A2780 cells; [1]) was 43.6 nM.
Work on `O=C(/C=C/c1cccnc1)Nc1ccc(S(=O)(=O)c2cc(Cl)cc(Cl)c2)cc1` [(2E)-N-{4-[(3,5-dichlorobenzene)sulfonyl]phenyl}-3-(pyridin-] [(2E)-N-{4-[(3,5-dichlorobenzene)sulfonyl]phenyl}-3-(pyridin-3-yl)prop-2-enamide] yielded an IC50 (NAMPT) of 50.5 nM and an IC50 (A2780 cells; A2780 cells, 72 hours, sulforhodamine B) of 186 nM.
`COc1cc(OC)cc(S(=O)(=O)c2ccc(NC(=O)/C=C/c3cccnc3)cc2)c1` [(2E)-N-{4-[(3,5-dimethoxybenzene)sulfonyl]phenyl}-3-(pyridin-3-yl)prop-2-enamide] was tested, and the IC50 (NAMPT) was 20.3 nM and the IC50 (A2780 cells; [1]) was 44.3 nM.
Compound `Cc1cc(C)cc(S(=O)(=O)c2ccc(NC(=O)/C=C/c3cccnc3)cc2)c1` [(2E)-N-{4-[(3,5-dimethylbenzene)sulfonyl]phenyl}-3-(pyridin-3-yl)prop-2-enamide] has an IC50 (NAMPT) of 17.1 nM and an IC50 (A2780 cells; [1]) of 95.4 nM.
For `COc1ccc(S(=O)(=O)c2ccc(NC(=O)/C=C/c3cccnc3)cc2)cc1Cl` [(2E)-N-{4-[(3-chloro-4-methoxybenzene)sulfonyl]phenyl}-3-(pyridin-3-yl)prop-2-enamide], the IC50 (NAMPT) was 5.8 nM and the IC50 (A2780 cells; [1]) was 123 nM.
`Cc1ccc(S(=O)(=O)c2ccc(NC(=O)/C=C/c3cccnc3)cc2)cc1Cl` [(2E)-N-{4-[(3-chloro-4-methylbenzene)sulfonyl]phenyl}-3-(pyridin-3-yl)prop-2-enamide] gave an IC50 (NAMPT) of 8.6 nM and an IC50 (A2780 cells; [1]) of 199 nM.
Compound `CCCOc1ccc(S(=O)(=O)c2ccc(NC(=O)/C=C/c3cccnc3)cc2)cc1Cl` [(2E)-N-{4-[(3-chloro-4-propoxybenzene)sulfonyl]phenyl}-3-(pyridin-3-yl)prop-2-enamide] has an IC50 (NAMPT) of 5.6 nM and an IC50 (A2780 cells; [1]) of 100 to 1000 nM.
`O=C(/C=C/c1cccnc1)Nc1ccc(S(=O)(=O)c2cc(F)cc(Cl)c2)cc1` [(2E)-N-{4-[(3-chloro-5-fluorobenzene)sulfonyl]phenyl}-3-(pyridin-3-yl)prop-2-enamide] gave an IC50 (NAMPT) of 124 nM and an IC50 (A2780 cells; [1]) of 179 nM.
Compound `COc1cc(Cl)cc(S(=O)(=O)c2ccc(NC(=O)/C=C/c3cccnc3)cc2)c1` [(2E)-N-{4-[(3-chloro-5-methoxybenzene)sulfonyl]phenyl}-3-(pyridin-3-yl)prop-2-enamide] has an IC50 (NAMPT) of 22 nM and an IC50 (A2780 cells; [1]) of 100 nM.
`O=C(/C=C/c1cccnc1)Nc1ccc(S(=O)(=O)c2cccc(Cl)c2)cc1` [(2E)-N-{4-[(3-chlorobenzene)sulfonyl]phenyl}-3-(pyridin-3-yl)prop-2-enamide] showed an IC50 (NAMPT) of 122 nM and an IC50 (A2780 cells; Homo sapiens, A2780, 72 h) of 182 nM.
`CCS(=O)(=O)Nc1cccc(S(=O)(=O)c2ccc(NC(=O)/C=C/c3cccnc3)cc2)c1` [(2E)-N-{4-[(3-ethanesulfonamidobenzene)sulfonyl]phenyl}-3-(pyridin-3-yl)prop-2-enamide] was tested, and the IC50 (NAMPT) was 8.1 nM and the IC50 (A2780 cells; [1]) was 100 to 1000 nM.
`CCOc1cccc(S(=O)(=O)c2ccc(NC(=O)/C=C/c3cccnc3)cc2)c1` [(2E)-N-{4-[(3-ethoxybenzene)sulfonyl]phenyl}-3-(pyridin-3-yl)prop-2-enamide] was tested, and the IC50 (NAMPT) was 57.2 nM and the IC50 (A2780 cells; [1]) was 91.9 nM.
`CCc1cccc(S(=O)(=O)c2ccc(NC(=O)/C=C/c3cccnc3)cc2)c1` [(2E)-N-{4-[(3-ethylbenzene)sulfonyl]phenyl}-3-(pyridin-3-yl)prop-2-enamide] showed an IC50 (NAMPT) of 3.3 nM and an IC50 (A2780 cells; [1]) of 30.5 nM.
Compound `COc1ccc(S(=O)(=O)c2ccc(NC(=O)/C=C/c3cccnc3)cc2)cc1F` [(2E)-N-{4-[(3-fluoro-4-methoxybenzene)sulfonyl]phenyl}-3-(pyridin-3-yl)prop-2-enamide] has an IC50 (NAMPT) of 11.5 nM and an IC50 (A2780 cells; [1]) of 103 nM.
`Cc1ccc(S(=O)(=O)c2ccc(NC(=O)/C=C/c3cccnc3)cc2)cc1F` [(2E)-N-{4-[(3-fluoro-4-methylbenzene)sulfonyl]phenyl}-3-(pyridin-3-yl)prop-2-enamide] was tested, and the IC50 (NAMPT) was 27.6 nM and the IC50 (A2780 cells; [1]) was 196 nM.
`CCCOc1ccc(S(=O)(=O)c2ccc(NC(=O)/C=C/c3cccnc3)cc2)cc1F` [(2E)-N-{4-[(3-fluoro-4-propoxybenzene)sulfonyl]phenyl}-3-(pyridin-3-yl)prop-2-enamide] was tested, and the IC50 (NAMPT) was 40.9 nM and the IC50 (A2780 cells; [1]) was 100 to 1000 nM.
Compound `COc1cc(F)cc(S(=O)(=O)c2ccc(NC(=O)/C=C/c3cccnc3)cc2)c1` [(2E)-N-{4-[(3-fluoro-5-methoxybenzene)sulfonyl]phenyl}-3-(pyridin-3-yl)prop-2-enamide] has an IC50 (NAMPT) of 3.2 nM and an IC50 (A2780 cells; [1]) of 68.1 nM.
